Values after ≈ are worked out from the molar mass of the structure shown. Starred links: 1 amine or outer side, 2 acyl side, 3 side chain; linkers in the order of their positions; H or OH if unused. Positions of bridges follow the written chain, without caps; N, C: chain ends. Non-standard residues stand in square brackets, D forms with d. Residues, ends and D or L forms follow the SMILES beside them. *: point of attachment. X2 = CC1CCC(C(=O)[*:2])N1[*:1]; NMeV = CN[CH](C(=O)O)C(C)C; X1 = Cc1ccc(C(=O)*)c(N)c1O; Sar = CNCC(=O)O
Columns and labels:
[1] = Body weight change in P388-bearing mice; details: QD × 3, ip
Protocol: (§1) BU-3292T components A and B were tested for in vitro cytotoxicity against murine and human tumor cells and for in vivo antitumor activity in mice. Actinomycin D was used as a reference compound in both in vitro and in vivo experiments. B16-F10 (murine melanoma) and Moser (human colorectal carcinoma) cells were grown to the logarithmic phase in enriched Eagle minimum essential medium (MEM) supplemented with fetal calf serum (FCS, 10%) and kanamycin (60 mcg/ml), harvested and inoculated into wells of a 96-well microtiter plate with test materials at the concentrations of 3.0×10^4 and 6.0×10^4 cells/ml, respectively. They were incubated at 37° C. in humidified atmosphere of 5% CO2 and 95% air for 72 hours. The cytotoxic activity was determined colorimetrically at 540 nm after staining viable cells with neutral red. […] Inhibitory effects of BU-3292T component A on macromolecule (DNA, RNA and protein) synthesis were determined in vitro. Cultured L1210 murine leukemia cells (5×10^5 cells/ml) were incubated with test materials at 37° C. for 15 minutes and then further incubated for 60 minutes after the addition of labelled precursor, ^3 H-thymidine, ^14 C-uridine or ^3 H-leucine, into the cultured mixtures. After washing with chilled 5% trichloroacetic acid solution, the radioactivity incorporated into the acid-insoluble fraction of the tumor cells was determined in a liquid scintillation counter. […] In vivo antitumor activities of BU-3292T components A and B were tested in tumor-bearing female CDF mice. After the intraperitoneal implantation of diluted ascitic fluid with 1.0 ×10^6 lymphocytic leukemia P388 cells into the mice, test compounds were administered intraperitoneally once a day on days 1, 2 and 3 (QD×3).

Escherichia coli NIHJ = experiment: Antimicrobial activity, serial two-fold agar dilution method; assay type: cell-based; details: Nutrient agar
Protocol: (§2) The antimicrobial activity of BU-3292T A and B was determined against aerobic and anaerobic bacteria and fungi by a serial two-fold agar dilution method. BU-3292T A and B are active against aerobic gram-positive bacteria, and weakly active against anaerobic gram-negative bacteria and fungi.

[2] = tested on: Bacillus subtilis PCI-219; experiment: as above; assay type: cell-based; details: Nutrient agar
Protocol: as §2

[3] = tested on: Klebsiella pneumoniae D11; experiment: as above; assay type: cell-based; details: Nutrient agar
Protocol: as §2

[4] = tested on: Aspergillus fumigatus IAM 2530; experiment: as above; assay type: cell-based; details: Sabouraud dextrose agar
Protocol: as §2

[5] = tested on: Fusarium moniliforme A2284; experiment: as above; assay type: cell-based; details: Sabouraud dextrose agar
Protocol: as §2

Mucor spinosus IFO 5317 = experiment: as above; assay type: cell-based
Protocol: as §2

[6] = tested on: Propionibacterium anaerobius A21905; experiment: as above; assay type: cell-based; details: GAM agar
Protocol: as §2

[7] = tested on: Staphylococcus epidermidis D153; experiment: as above; assay type: cell-based; details: Nutrient agar
Protocol: as §2

[8] = tested on: Staphylococcus aureus 209P; experiment: as above; assay type: cell-based; details: Nutrient agar
Protocol: as §2

Proteus mirabilis A9554 = experiment: as above; assay type: cell-based; details: Nutrient agar
Protocol: as §2

[9] = tested on: Cryptococcus neoformans IAM 4519; experiment: as above; assay type: cell-based; details: Sabouraud dextrose agar
Protocol: as §2

[10] = tested on: Streptococcus pyogenes A20201; experiment: as above; assay type: cell-based; details: Nutrient agar
Protocol: as §2

Micrococcus luteus 1001 = experiment: as above; assay type: cell-based; details: Nutrient agar
Protocol: as §2

[11] = tested on: Streptococcus faecalis A9612; experiment: as above; assay type: cell-based; details: Nutrient agar
Protocol: as §2

[12] = tested on: Staphylococcus aureus smith; experiment: as above; assay type: cell-based; details: Nutrient agar
Protocol: as §2

[13] = tested on: Trichophyton mentagrophytes D155; experiment: as above; assay type: cell-based; details: Sabouraud dextrose agar
Protocol: as §2

[14] = tested on: Pseudomonas aeruginosa A9930; experiment: as above; assay type: cell-based; details: Nutrient agar
Protocol: as §2

Proteus vulgalis A9436 = experiment: as above; assay type: cell-based; details: Nutrient agar
Protocol: as §2

[15] = tested on: Candida albicans IAM 4888; experiment: as above; assay type: cell-based; details: Sabouraud dextrose agar
Protocol: as §2

[16] = tested on: Propionibacterium acnes A21933; experiment: as above; assay type: cell-based; details: GAM agar
Protocol: as §2

[17] = tested on: Clostridium difficile A21675; experiment: as above; assay type: cell-based; details: GAM agar
Protocol: as §2

[18] = tested on: Bacteroides fragilis A22693; experiment: as above; assay type: cell-based; details: GAM agar
Protocol: as §2

[19] = tested on: Protein synthesis in L1210 leukemia cells; experiment: Inhibition of macromolecule synthesis, 3H-leucine incorporation; assay type: cell-based, murine
Protocol: as §1

[20] = tested on: aerobic gram-positive bacteria; experiment: Antimicrobial activity, agar dilution, summary in words; assay type: cell-based; details: summary of Table 6
Protocol: as §2

gram-negative bacteria = experiment: as above; assay type: cell-based; details: summary of Table 6
Protocol: as §2

[21] = tested on: anaerobic gram-negative bacteria and fungi; experiment: as above; assay type: cell-based; details: summary of Table 6
Protocol: as §2

[22] = tested on: DNA synthesis in L1210 leukemia cells; experiment: Inhibition of macromolecule synthesis, 3H-thymidine incorporation; assay type: cell-based, murine
Protocol: BU-3292T components A and B were tested for in vitro cytotoxicity against murine and human tumor cells and for in vivo antitumor activity in mice. Actinomycin D was used as a reference compound in both in vitro and in vivo experiments. B16-F10 (murine melanoma) and Moser (human colorectal carcinoma) cells were grown to the logarithmic phase in enriched Eagle minimum essential medium (MEM) supplemented with fetal calf serum (FCS, 10%) and kanamycin (60 mcg/ml), harvested and inoculated into wells of a 96-well microtiter plate with test materials at the concentrations of 3.0×10^4 and 6.0×10^4 cells/ml, respectively. They were incubated at 37° C. in humidified atmosphere of 5% CO2 and 95% air for 72 hours. The cytotoxic activity was determined colorimetrically at 540 nm after staining viable cells with neutral red. […] Inhibitory effects of BU-3292T component A on macromolecule (DNA, RNA and protein) synthesis were determined in vitro. […] After washing with chilled 5% trichloroacetic acid solution, the radioactivity incorporated into the acid-insoluble fraction of the tumor cells was determined in a liquid scintillation counter. […]

[23] = tested on: lymphocytic leukemia P388; experiment: Antitumor activity against P388 leukemia (ip); assay type: in vivo, mice; details: for MST (Median survival time) / T/C: QD × 3, ip
Protocol: as §1

[24] = tested on: Moser (human colorectal carcinoma) cells; experiment: In vitro cytotoxicity, neutral red staining; assay type: cell-based; details: 72 hours
Protocol: as §1

[25] = tested on: B16-F10 (murine melanoma) cells; experiment: In vitro cytotoxicity, neutral red staining; assay type: cell-based
Protocol: as §1

Solubility = assay type: physicochemical
Description: BU-3292T A is isolated as a white amorphous powder, while BU-3292T B is an orange-red powder. […] The compounds give positive responses to iodine and Rydone-Smith reagents, but negative responses to Sakaguchi, ferric chloride, ninhydrin and anthrone reagents. […] The IR spectra of BU-3292T A and B are illustrated in FIGS. 1 and 2, respectively.

[26] = tested on: Clostridium perfringens A9635; assay type: cell-based; details: GAM agar
[27] = tested on: RNA synthesis in L1210 leukemia cells; experiment: Inhibition of macromolecule synthesis, 14C-uridine incorporation; assay type: cell-based, murine
Protocol: as §1

## Cc1ccc(C(=O)NC2C(=O)NC(C(C)C)C(=O)N3C(C)CCC3C(=O)N(C)CC(=O)N(C)C(C(C)C)C(=O)OC2C)c(N)c1O (stereo not shown) [BU-3292T A] (X1-TV[X2][Sar][NMeV]; ester 1-C; configuration not given here)
[1]; 0.03 mg/kg/day
  Body weight change on day 4: +1.3 g
[1]; 0.1 mg/kg/day
  Body weight change on day 4: +1.3 g
[1]; 0.3 mg/kg/day
  Body weight change on day 4: +1.3 g
[1]; 1 mg/kg/day
  Body weight change on day 4: +0.5 g
[1]; 3 mg/kg/day
  Body weight change on day 4: +0.3 g
[1]; 10 mg/kg/day
  Body weight change on day 4: -3.0 g
Escherichia coli NIHJ
  MIC: > 100 µg/mL
[2]
  MIC: 0.4 µg/mL (≈ 0.62 µM)
[3]
  MIC: > 100 µg/mL
[4]
  MIC: > 100 µg/mL
[5]
  MIC: > 100 µg/mL
Mucor spinosus IFO 5317; Mucor spinosus IFO 5317, Sabouraud dextrose agar
  MIC: 12.5 µg/mL (≈ 19.4 µM)
Mucor spinosus IFO 5317; in vitro against Mucor spinosus IF05317
  MIC: 12.5 µg/mL (≈ 19.4 µM)
[6]
  MIC: 100 µg/mL (≈ 155 µM)
[7]
  MIC: 1.6 µg/mL (≈ 2.48 µM)
[8]
  MIC: 1.6 µg/mL (≈ 2.48 µM)
Proteus mirabilis A9554
  MIC: > 100 µg/mL
[9]
  MIC: 100 µg/mL (≈ 155 µM)
[10]
  MIC: 1.6 µg/mL (≈ 2.48 µM)
Micrococcus luteus 1001
  MIC: 0.4 µg/mL (≈ 0.62 µM)
[11]
  MIC: 0.8 µg/mL (≈ 1.24 µM)
[12]
  MIC: 1.6 µg/mL (≈ 2.48 µM)
[13]
  MIC: > 100 µg/mL
[14]
  MIC: > 100 µg/mL
Proteus vulgalis A9436
  MIC: > 100 µg/mL
[15]
  MIC: > 100 µg/mL
[16]
  MIC: 100 µg/mL (≈ 155 µM)
[17]
  MIC: > 100 µg/mL
[18]
  MIC: > 100 µg/mL
[19]; L1210 cells, at 100 mcg/ml, the highest concentration tested
  inhibitory effect on protein synthesis: no inhibitory effect
[19]; L1210 leukemia cells, 3H-leucine
  IC50 Protein: > 100 µg/mL
[20]
  activity against aerobic gram-positive bacteria: active
gram-negative bacteria
  activity against gram-negative bacteria: inactive
[21]
  activity against anaerobic gram-negative bacteria and fungi: weakly active
[22]
  IC50 DNA: 80 µg/mL (≈ 124 µM)
[23]; 0.03 mg/kg/day
  MST (Median survival time): 11.0 days
  T/C: 110%
[23]; 0.1 mg/kg/day
  MST (Median survival time): 11.0 days
  T/C: 110%
[23]; 0.3 mg/kg/day
  MST (Median survival time): 12.0 days
  T/C: 120%
[23]; 1 mg/kg/day
  MST (Median survival time): 13.0 days
  T/C: 130%
[23]; 3 mg/kg/day
  MST (Median survival time): 14.0 days
  T/C: 140%
[23]; 10 mg/kg/day
  MST (Median survival time): 16.0 days
  T/C: 160%
[23]; 30 mg/kg/day
  MST (Median survival time): Tox
  T/C: Tox
[23]; anti-P388 leukemic activity, QD×3, ip
  maximum T/C value: 160%
[24]
  IC50: 0.09 µg/mL (≈ 0.14 µM)
[25]; B16-F10, 72 hours
  IC50: 0.007 µg/mL (≈ 0.0109 µM)
[25]; cytotoxic activity, B16-F10 versus Moser
  times stronger against B16-F10 cells than against Moser cells: approximately 10 times
Solubility; dimethyl sulfoxide, dimethylformamide, methanol, ethyl acetate, chloroform
  solubility in dimethyl sulfoxide, dimethylformamide, methanol, ethyl acetate and chloroform: readily soluble
Solubility; water and other organic solvents
  solubility in water and other organic solvents: insoluble
[26]
  MIC: 100 µg/mL (≈ 155 µM)
[27]; L1210 cells, RNA versus DNA synthesis
  inhibited RNA synthesis times more than DNA synthesis: approximately 300 times
[27]; L1210 leukemia cells, 14C-uridine
  IC50 RNA: 0.23 µg/mL (≈ 0.357 µM)

Source: US5114920A, “BU-3292T antibiotics” (priority 1988, dated 1992)
